Values belong to the molecule of their own block, whether it stands above or below them.
How the values were obtained:
[1] = target: other protein kinases (each individual kinase); assay: Standardized radiometric kinase assays, IC50 over 10 drug concentrations; format: biochemical; conditions: estimated
[2] = target: each individual kinase of the panel (Homo sapiens, UniProt O96013); assay: Standardized radiometric kinase assays, percentage of activity at 0.5 μM;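 further: Read-out is ³³P-labelled substrate protein phosphorylated by each kinase, captured on filters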
[3] = target: each individual kinase of the panel (Homo sapiens, UniProt Q9Y6E0); assay: as above
[4] = target: each individual kinase of the panel (Homo sapiens, UniProt O96017); assay: as above
[5] = target: each individual kinase of the panel (Homo sapiens, UniProt Q13555); assay: as above
[6] = target: each individual kinase of the panel (Homo sapiens, UniProt P48730); assay: as above
[7] = target: each individual kinase of the panel (Homo sapiens, UniProt P53667); assay: as above
[8] = target: each individual kinase of the panel (Homo sapiens, UniProt Q14289); assay: as above
[9] = target: each individual kinase of the panel (Homo sapiens, UniProt Q9Y5S2); assay: as above
[10] = target: each individual kinase of the panel (Homo sapiens, UniProt Q05513); assay: as above
[11] = target: each individual kinase of the panel (Homo sapiens, UniProt O00141); assay: as above
[12] = target: each individual kinase of the panel (Homo sapiens, UniProt Q9HBY8); assay: as above
[13] = target: each individual kinase of the panel (Mus musculus, UniProt P47809); assay: as above
[14] = target: each individual kinase of the panel (Mus musculus, UniProt P63085); assay: as above
[15] = target: each individual kinase of the panel (Homo sapiens, UniProt P53355); assay: as above

Sequence of each individual kinase of the panel (Mus musculus, UniProt P63085) (P63085 2-358 limits assumed): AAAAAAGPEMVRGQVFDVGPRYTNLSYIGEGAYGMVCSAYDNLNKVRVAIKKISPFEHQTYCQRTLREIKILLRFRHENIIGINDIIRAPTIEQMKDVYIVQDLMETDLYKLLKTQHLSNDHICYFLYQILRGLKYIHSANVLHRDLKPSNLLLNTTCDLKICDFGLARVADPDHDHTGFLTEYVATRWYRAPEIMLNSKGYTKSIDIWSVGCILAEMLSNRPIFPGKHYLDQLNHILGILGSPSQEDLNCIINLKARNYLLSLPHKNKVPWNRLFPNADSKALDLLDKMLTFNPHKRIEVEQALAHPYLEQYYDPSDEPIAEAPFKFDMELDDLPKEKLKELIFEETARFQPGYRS
Sequence of each individual kinase of the panel (Mus musculus, UniProt P47809) (P47809 2-397 limits assumed): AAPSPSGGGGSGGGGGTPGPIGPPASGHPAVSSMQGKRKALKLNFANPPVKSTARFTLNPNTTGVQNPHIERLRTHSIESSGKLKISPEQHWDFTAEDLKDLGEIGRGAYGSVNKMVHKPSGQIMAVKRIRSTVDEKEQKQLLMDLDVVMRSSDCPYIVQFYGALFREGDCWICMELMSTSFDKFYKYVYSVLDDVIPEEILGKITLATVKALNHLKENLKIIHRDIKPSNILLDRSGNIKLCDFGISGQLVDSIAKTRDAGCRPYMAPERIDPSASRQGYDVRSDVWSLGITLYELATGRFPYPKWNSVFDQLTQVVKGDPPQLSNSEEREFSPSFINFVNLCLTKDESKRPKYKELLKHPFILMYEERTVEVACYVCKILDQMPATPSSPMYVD

IC50 ([1]; Flt3(h)): 104 nM | IC50 ([1]; Pim-1(h)): 1 nM | IC50 ([1]; Pim-2(h)): 6 nM | IC50 ([1]; Pim-3(h)): 86 nM | IC50 ([1]; Rsk1(h)): 41 nM | IC50 ([1]; Rsk2(h)): 72 nM | IC50 ([1]; Rsk3(h)): 73 nM | IC50 ([1]; Rsk4(h)): 37 nM
Compound: Clc1ccccc1Nc1nc2c(-c3nnc[nH]3)cccc2c2cnccc12 [A]

PAK4 percentage of activity [2]: −12% | MST3 percentage of activity [3]: 0% | CHK2 percentage of activity [4]: 5% | CAMK2G percentage of activity [5]: 36% | CK1 delta percentage of activity [6]: −4% | LIMK1 percentage of activity [7]: 3% | Pyk2 percentage of activity [8]: −3% | MRCKB percentage of activity [9]: 0% | PRKCZ percentage of activity [10]: −9% | SGK percentage of activity [11]: −1% | SGK2 percentage of activity [12]: 2% | MKK4(m) percentage of activity [13]: −2% | MAPK2(m) percentage of activity [14]: −6% | DAPK1 percentage of activity [15]: 58%
Compound: C#Cc1cccc(Nc2nc3cc(C(=O)O)ccc3c3cncnc23)c1 [drawing 1135]

Source: US8168651B2, “Protein kinase modulators” (Cylene Pharmaceuticals, Inc., priority 2008, dated 2012)
